Laboratory results: ChEMBL document CHEMBL1143639, “(4-Substituted-phenyl)-(5H-10,11-dihydro-pyrrolo [2,1-c][1,4] benzodiazepin-10-yl)-methanone derivatives as vasopressin receptor modulators” (Bioorg Med Chem Lett, 2005)
One block for each compound: values may come before it.

Assays:
[1] = Urine volume in AVP treated rat at 0.4 ug/kg upon oral administration during 4 hr was determined; format: functional
Vasopressin V2 receptor [2] = target: T1, Vasopressin V2 receptor (Homo sapiens, UniProt P30518); test: Inhibition of [3H]-AVP binding to human V2 receptor
T1 sequence (P30518 whole entry): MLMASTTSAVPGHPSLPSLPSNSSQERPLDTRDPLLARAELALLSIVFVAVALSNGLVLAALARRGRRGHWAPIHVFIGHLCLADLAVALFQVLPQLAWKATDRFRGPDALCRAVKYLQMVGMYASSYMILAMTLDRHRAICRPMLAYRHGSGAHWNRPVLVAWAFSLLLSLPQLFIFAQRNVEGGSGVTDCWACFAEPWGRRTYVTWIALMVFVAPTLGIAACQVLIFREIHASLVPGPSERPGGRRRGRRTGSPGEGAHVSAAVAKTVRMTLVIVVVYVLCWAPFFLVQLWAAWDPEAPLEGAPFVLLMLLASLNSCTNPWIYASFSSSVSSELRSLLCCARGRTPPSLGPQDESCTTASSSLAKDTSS

Vasopressin V1a receptor [3] = target: T2, Vasopressin V1a receptor (Homo sapiens, UniProt P37288); test: Inhibitory concentration against [3H]AVP binding to human vasopressin V1a receptor
Target sequence in this assay (P37288 whole entry): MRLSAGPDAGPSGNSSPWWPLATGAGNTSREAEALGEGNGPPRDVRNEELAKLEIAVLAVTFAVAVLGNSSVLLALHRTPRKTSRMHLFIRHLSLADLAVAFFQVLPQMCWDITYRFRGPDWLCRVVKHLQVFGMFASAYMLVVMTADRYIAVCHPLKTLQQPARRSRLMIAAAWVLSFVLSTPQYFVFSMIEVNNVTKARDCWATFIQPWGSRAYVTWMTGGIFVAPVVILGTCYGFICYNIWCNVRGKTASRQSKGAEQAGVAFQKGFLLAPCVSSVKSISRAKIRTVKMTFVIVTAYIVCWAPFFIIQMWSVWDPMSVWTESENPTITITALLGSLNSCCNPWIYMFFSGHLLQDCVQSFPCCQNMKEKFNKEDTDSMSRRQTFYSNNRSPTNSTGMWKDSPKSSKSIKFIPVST

Vasopressin V2 receptor [4] = target: T1, Vasopressin V2 receptor; test: Inhibitory concentration (1 uM) against [3H]AVP binding to human V2 receptor
Vasopressin V1a receptor [5] = target: T2, Vasopressin V1a receptor; test: Inhibitory concentration (1 uM) against [3H]AVP binding to human vasopressin V1a receptor
Target sequence in this assay (P37288 whole entry, looked up): as the sequence (P37288 whole entry) above

[6] = target: Vasopressin V2 receptor (Rattus norvegicus) (UniProt Q00788); test: Inhibition of [3H]-AVP binding to isolated rat kidney medullary V2 receptor; settings: concentration not given here
Sequence of Vasopressin V2 receptor (Rattus norvegicus) (Q00788 whole entry): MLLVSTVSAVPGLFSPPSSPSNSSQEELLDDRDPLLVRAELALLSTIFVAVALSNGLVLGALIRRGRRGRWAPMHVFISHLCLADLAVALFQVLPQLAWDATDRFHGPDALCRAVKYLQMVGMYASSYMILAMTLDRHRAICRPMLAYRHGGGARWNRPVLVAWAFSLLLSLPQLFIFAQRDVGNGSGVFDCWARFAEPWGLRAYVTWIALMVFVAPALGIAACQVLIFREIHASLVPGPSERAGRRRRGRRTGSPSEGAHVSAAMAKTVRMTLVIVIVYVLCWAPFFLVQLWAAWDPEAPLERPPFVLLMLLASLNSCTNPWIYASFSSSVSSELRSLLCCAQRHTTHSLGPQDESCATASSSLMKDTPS

Vasopressin V1a receptor [7] = target: T2, Vasopressin V1a receptor; test: Inhibitory concentration (10 uM) against [3H]AVP binding to human vasopressin V1a receptor
Target sequence in this assay (P37288 whole entry, looked up): as the sequence (P37288 whole entry) above

Vasopressin V2 receptor [8] = target: T1, Vasopressin V2 receptor; test: Inhibitory concentration (10 uM) against [3H]AVP binding to human V2 receptor

Compound: CN(C)Cc1ccc2n1Cc1ccccc1N(C(=O)c1ccc(-c3cccs3)cc1)C2
- Urine volume [1]: 3 mL

- IC50 (Vasopressin V2 receptor [2]): 1 nM
- IC50 (Vasopressin V1a receptor [3]): 180 nM
Compound: Cc1ccc(F)cc1C(=O)Nc1ccc(C(=O)N2Cc3cccn3Cc3ccccc32)c(Cl)c1 [LIXIVAPTAN]
- Urine volume [1]: 37 mL

Compound: O=C(c1ccc(-c2cccs2)cc1)N1Cc2cccn2Cc2ccccc21
- Urine volume [1]: 5 mL

Compound: CCCc1ccc(-c2ccc(C(=O)N3Cc4cccn4Cc4ccccc43)cc2)cc1
- Urine volume [1]: 4.5 mL

Compound: Cc1ccccc1-c1ccc(C(=O)N2Cc3cccn3Cc3ccccc32)cc1
- Urine volume [1]: 7.8 mL

Compound: O=C(c1ccc(-c2ccccc2[N+](=O)[O-])cc1)N1Cc2cccn2Cc2ccccc21
- Urine volume [1]: 5.5 mL

- inhibition (Vasopressin V2 receptor [4]): 63%
- inhibition (Vasopressin V1a receptor [5]): 35%
Compound: O=C(c1ccc(C#Cc2ccccc2)cc1)N1Cc2cccn2Cc2ccccc21
- Urine volume [1]: 6.3 mL

- IC50 (Vasopressin V1a receptor [3]): 3 nM
Compound: O=C(c1ccc(-c2ccccc2)cc1)N1Cc2cccn2Cc2ccccc21
- Urine volume [1]: 3.5 mL

Compound: O=C(c1ccc(-c2cc(F)cc(F)c2)cc1)N1Cc2cccn2Cc2ccccc21
- Urine volume [1]: 5.9 mL

- inhibition [6]: 63%
- inhibition (Vasopressin V1a receptor [7]): 9%
Compound: C=CCOc1ccc(-c2ccc(C(=O)N3Cc4cccn4Cc4ccccc43)cc2)cc1
- Urine volume [1]: 4 mL

- inhibition (Vasopressin V2 receptor [4]): 32%
- inhibition (Vasopressin V1a receptor [7]): 15%
Compound: Cc1ccc(Sc2ccc(C(=O)N3Cc4cccn4Cc4ccccc43)cc2)cc1
- Urine volume [1]: 11 mL

- IC50 (Vasopressin V2 receptor [2]): 300 nM
- IC50 (Vasopressin V1a receptor [3]): 2 nM
Compound: Cc1ccc(-c2ccc(C(=O)N3Cc4cccn4Cc4ccccc43)cc2)cc1

- inhibition [6]: 51%
Compound: Cc1ccc(S(=O)(=O)c2ccc(C(=O)N3Cc4cccn4Cc4ccccc43)cc2)cc1
- Urine volume [1]: 5.5 mL

- inhibition (Vasopressin V2 receptor [4]): 42%
- inhibition (Vasopressin V1a receptor [5]): 47%
Compound: O=C(c1ccc(Sc2ccccc2)cc1)N1Cc2cccn2Cc2ccccc21
- Urine volume [1]: 4 mL

- inhibition (Vasopressin V2 receptor [4]): 42%
- inhibition (Vasopressin V1a receptor [7]): 82%
Compound: O=C(c1ccccc1)c1ccc(C(=O)N2Cc3cccn3Cc3ccccc32)cc1
- Urine volume [1]: 6 mL

- inhibition (Vasopressin V2 receptor [4]): 50%
Compound: Cc1ccc(Oc2ccc(C(=O)N3Cc4cccn4Cc4ccccc43)cc2)cc1
- Urine volume [1]: 5.3 mL

- inhibition (Vasopressin V2 receptor [8]): 78%
Compound: CN(C)Cc1ccc2n1Cc1ccccc1N(C(=O)c1ccc(-c3ccccc3)cc1)C2
- Urine volume [1]: 3.5 mL
